Measured values published in patent publication US5047433A, “N-alkyl derivatives of 2-amino-6,7-dimethoxy tetraline and pharmaceutical compositions having antihypertensive activity containing same” (Sigma-Tau Industrie Farmaceutiche Riunite S.p.A., priority 1986, dated 1991).
Counter-ions that a name gives are not always drawn. Like-named read-outs stand apart in the source and are kept apart here.

Tests used:
[1] = Tolerability in mice (oral and intravenous); set-up: species or system mouse (Male Albino Swiss); settings: mouse, in vivo, monitored 7 days
Method: Male Albino Swiss mice weighing 22-24 g were used in this test.
One group of animals (4/does) which had been kept fasting for 18 hours was orally administered the compounds dissolved in twice distilled water. The same compounds dissolved in saline at pH-7 were intravenously injected in a further group of animals which had free access to food and drinking water. All of the animals were monitored for 7 days.

[2] = tested on: Normotensive cats; experiment: Measure of arterial pressure in normotensive cats; assay type: in vivo, cat; settings: anesthetized cats, crural vein
Method: Normotensive cats of either sex weighing 2.5-3.5 kgs were used in this test.
The animals fasted for 18 hours were anesthetized with Na Nembutal (30 mg/kg) and ethyl urethane (300 mg/kg i.p.). The crural vein and artery of the animals were cannulated, the former for administering the compounds, the latter for monitoring the arterial pressure. The arterial pressure was measured via a mercury gauge connected to a rotating kymograph.
The compounds were dissolved in sterile 0.9% saline and administered at physiological pH in a 0.5 ml/kg volume.

[3] = tested on: Hypertensive SHR rats; experiment: Non-invasive measure of arterial pressure in genetically hypertensive (SHR) rats; assay type: in vivo, rat (male SHR); settings: oral, 40 mg/kg
Method: Male SHR rats (Charles River) of 4-6 months were used in this test. The compounds listed were dissolved in either 0.9% saline or twice distilled water and administered via the oral route (10-40 mg/5 ml/kg).
The animals, housed in individual cages at 23° C. and 60% humidity, had free access to food and drinking water. A BP recorder (Letica) equipped with a two-way polygraph was used. The systolic and diastolic pressure and the heart rate were recorded. The animals, a few days before the test began, were accustomed to be constrained on a heating plate (at 38° C.±1° C. for 20 minutes).
During the pre-tests, assessments were made at time 0 (8^30 -9^30 a.m.) and after 2 and 4 hours.
Every assessment was the average of 3-5 measures and the maximum residence time of the animal in the thermostatized chamber (for the whole test duration) was 40 minutes; the time interval between administrations of different doses of the same compound was 3 days.
(§1) Student's "t" test was used for assessing the differences with respect to the control group and its own 0 time.

[4] = LD50 in mice (intravenous); settings: mouse, in vivo, Weil's method
Method: LD50 was assessed according to the Carrol S. Weil's method (Biometrics, pages 249-263 (1952)) on male Albino Swiss mice weighing 22-24 g. The compounds dissolved in […] solution were administered via the intravenous route.

[5] = tested on: Hypertensive DOCA rats; experiment: Non-invasive measure of arterial pressure in rats made hypertensive (DOCA); assay type: in vivo, rat (male Wistar); settings: oral, 40 mg/kg, 2-4 hours
Method: Male Wistar rats (Charles River) of 4 months were used in this test.
The compounds listed were solubilized in twice distilled water and administered via the oral route (40 mg/5 ml/kg).
The animals, housed in individual cages at 23° C. and 60% humidity, had free access to food and were made to drink 1% saline solution. The animals were administered 20 mg/kg s.c. of deoxycorticosterone acetate (DOCA) for 14 days on end.
A BP recorder (Letica) equipped with a two-way polygraph was used. The systolic and diastolic pressure, and the heart rate were recorded. The animals, a few days before the test began, were accustomed to be constrained on a heating plate (at 38° C.±1° C. for 20 minutes).
During the pre-test, assessments were made at time 0 (8^30 -9^30 a.m.) and after 2 and 4 hours.
Every assessment was the average of 3-5 measures and the maximum residence time of animal in the thermostatized chamber (for the whole test duration) was 40 minutes; the time interval between administrations of different doses of the same compound was 3 days.
as §1

[6] = tested on: Normotensive cats; experiment: Measure of arterial pressure in normotensive cats; assay type: in vivo, cat; settings: dose 40 mg (os); entry (1)
[7] = oral, fasted 18 hours, read-out: Tolerability, os
[8] = intravenous, read-out: Tolerability, i.v.

SMILES	MTD at 168 h [1, 7] [mg/kg]	LD50 [4] [mg/kg]	MTD at 168 h [1, 8] [mg/kg]	further results
COc1ccc(C(O)CN(CC2CC2)C2CCc3cc(OC)c(OC)cc3C2)cc1 (stereo not shown) [ST 565, 2-[(N-methylcyclopropyl, N-p-methoxy-phenyl-2-ethanol)amino]-6,7-dimethoxy tetraline hydrochloride]	> 50	–	–	–
COc1ccc(C(O)CNC2CCc3cc(OC)c(OC)cc3C2)cc1 (stereo not shown) [ST 578, 2-[(N-2-p-methoxyphenyl-2-ethanol)amino]-6,7-dimethoxy tetraline hydrochloride]	> 50	27.7	> 15	Times of effect duration (hypotension in normotensive cats) ([2]; dose 1-2-4 mg/kg): B/L; Arterial pressure in hypertensive SHR rats ([3]; 3 hours): -40 mm Hg; Arterial pressure in hypertensive SHR rats ([3]; 5 hours): -27 mm Hg
CCCN(CC(O)c1ccccc1)C1CCc2cc(OC)c(OC)cc2C1 (stereo not shown) [ST 566, 2-[(N-propyl,N-phenyl-2-ethanol)amino]-6,7-dimethoxy tetraline hydrochloride]	> 50	–	> 20	–
CCN(CCc1ccccc1)C1CCc2cc(OC)c(OC)cc2C1 (stereo not shown) [ST 577, 2-[(N-ethyl, N-2-phenylethyl)amino]-6,7-dimethoxy tetraline hydrochloride]	> 50	35.7	> 20	Arterial pressure in normotensive cats, hypotension ([2]; dose 1 mg/kg): 20 mm Hg; Times of effect duration (hypotension in normotensive cats) ([2]; dose 1 mg/kg): L (long >30 minutes); Arterial pressure in normotensive cats, hypotension ([2]; dose 2 mg/kg): 44 mm Hg; Times of effect duration (hypotension in normotensive cats) ([2]; dose 2 mg/kg): M (average ≤30 minutes)
COc1cc2c(cc1OC)CC(NCC(O)c1ccccc1)CC2 (stereo not shown) [ST 579, 2-[(N-2-phenyl-2-ethanol)amino]-6,7-dimethoxy tetraline hydrochloride]	> 50	35.7	> 20	Arterial pressure in hypertensive SHR rats ([3]; 2 hours): -26 mm Hg; Arterial pressure in hypertensive DOCA rats [5]: -20 mm Hg
COc1cc2c(cc1OC)CC(NCC(O)c1ccc(C)cc1)CC2 (stereo not shown) [ST 563, 2-[(N-2-p-methylphenyl-2-ethanol)amino]-6,7-dimethoxy tetraline]	> 50	35.7	> 20	Arterial pressure in hypertensive SHR rats ([3]; 2 hours): -65 mm Hg
CCN(CC(O)c1ccccc1)C1CCc2cc(OC)c(OC)cc2C1 (stereo not shown) [ST 570, 2-[(N-ethyl, N-2-phenyl-2-ethanol)amino]-6,7-dimethoxy tetraline hydrochloride]	> 50	34.9	> 20	Arterial pressure in normotensive cats, hypotension ([2]; dose 1 mg/kg): 64 mm Hg; Times of effect duration (hypotension in normotensive cats) ([2]; dose 1 mg/kg): L (long >30 minutes); Arterial pressure in hypertensive SHR rats ([3]; 2 hours): -29 mm Hg
CCCN(CC(O)c1ccc(C)cc1)C1CCc2cc(OC)c(OC)cc2C1 (stereo not shown) [ST 571, 2-[(N-propyl,N-2-p-methylphenyl-2-ethanol)amino]-6,7-dimethoxy tetraline hydrochloride]	> 50	42.3	> 30	Times of effect duration (hypotension in normotensive cats) ([2]; dose 1-2-4 mg/kg): M/B
COc1cc2c(cc1OC)CC(NCC(O)c1ccc(C(F)(F)F)cc1)CC2 (stereo not shown) [ST 590, 2-[(N-2-p-trifluoromethylphenyl-2-ethanol)amino]6,7-dimethoxy tetraline hydrochloride]	> 50	–	> 50	Arterial pressure in normotensive cats, hypotension [6]: 39 mm Hg; Times of effect duration (hypotension in normotensive cats) [6]: L (long >30 minutes)
CCN(CC(O)c1ccc(C(F)(F)F)cc1)C1CCc2cc(OC)c(OC)cc2C1 (stereo not shown) [ST 592, 2-[(N-ethyl, N-2-p-trifluoromethylphenyl-2-ethanol)-amino]-6,7-dimethoxy tetraline hydrochloride]	> 50	–	> 30	–
COc1cc2c(cc1OC)CC(N(CC1CC1)CC(O)c1ccccc1)CC2 (stereo not shown) [ST 567, 2-[(N-methylcyclopropyl, N-phenyl-2-ethanol)amino]-6,7-dimethoxy tetraline hydrochloride]	> 50	30.2	> 15	–
COc1cc2c(cc1OC)CC(NCC(OC)c1ccccc1)CC2 (stereo not shown) [ST 600, 2-[(N-2-phenyl-2-methoxyethyl)amino]-6,7-dimethoxy tetraline hydrochloride]	> 50	29.7	> 20	Arterial pressure in normotensive cats, hypotension ([2]; dose 2 mg/kg): 28 mm Hg; Times of effect duration (hypotension in normotensive cats) ([2]; dose 2 mg/kg): B (short <5 minutes); Arterial pressure in normotensive cats, hypotension ([2]; dose 4 mg/kg): 54 mm Hg; Times of effect duration (hypotension in normotensive cats) ([2]; dose 4 mg/kg): M (average ≤30 minutes)
COc1cc2c(cc1OC)CC(N(CC1CC1)CC(O)c1ccc(C)cc1)CC2 (stereo not shown) [ST 574, 2-[(N-methylcyclopropyl, N-p-methylphenyl-2-ethanol)amino]-6,7-dimethoxy tetraline hydrochloride]	> 50	–	> 30	Times of effect duration (hypotension in normotensive cats) ([2]; dose 1-2-4 mg/kg): M/B
COc1cc2c(cc1OC)CC(NCC(O)c1ccc(O)cc1)CC2 (stereo not shown) [ST 558, 2-[(N-2-p-hydroxyphenyl-2-ethanol)amino]-6,7-dimethoxy tetraline hydrochloride]	> 50	–	> 50	Arterial pressure in hypertensive SHR rats ([3]; 3 hours): -13 mm Hg; Arterial pressure in hypertensive SHR rats ([3]; 5 hours): -31 mm Hg
COc1cc2c(cc1OC)CC(NCC(O)c1ccc(F)cc1)CC2 (stereo not shown) [ST 593, 2-[(N-2-p-fluorophenyl-2-ethanol)amino]-6,7-dimethoxy tetraline hydrochloride]	> 50	–	> 50	Arterial pressure in normotensive cats, hypotension ([2]; dose 1 mg/kg): 12 mm Hg; Arterial pressure in normotensive cats, hypotension ([2]; dose 2 mg/kg): 16 mm Hg; Arterial pressure in normotensive cats, hypotension ([2]; dose 4 mg/kg): 26 mm Hg; Times of effect duration (hypotension in normotensive cats) ([2]; dose 1-2-4 mg/kg): M/B
